≈ marks a conversion by molar mass, not a printed value. Calls of active or inactive are those of the source. The calls are words filed in the database; no cut-off is given here.
Legend:
Staphylococcus aureus [1] = assay: Antibacterial activity against Staphylococcus aureus at 50 ug/disk after 18 hrs by paper disk agar diffusion assay; format: functional; conditions: read-out: IZ
Staphylococcus aureus [2] = assay: Antibacterial activity against Staphylococcus aureus at 100 ug/disk after 18 hrs by paper disk agar diffusion assay; format: functional; conditions: read-out: IZ
DNA = assay: Binding affinity to calf thymus DNA by DNA intercalating assay relative to ethidium bromide; format: nucleic-acid assay; conditions: Bos taurus
Staphylococcus aureus [3] = assay: Antibacterial activity against Staphylococcus aureus at 200 ug/disk after 18 hrs by paper disk agar diffusion assay; format: functional; conditions: read-out: IZ
MIA PaCa-2 = assay: Cytotoxicity against human PaCa2; format: functional, cell-based
[4] = Cytotoxicity against human NSCLC-N6 L16; format: functional
Candida albicans = assay: Antifungal activity against Candida albicans at 200 ug/disk after 18 hrs by paper disk agar diffusion assay; format: functional, organism-based
DU-145 = assay: Cytotoxicity against human DU145; format: functional, cell-based
Paracentrotus lividus = assay: Inhibition of sea urchin egg division

Activity (DNA): 40%
IC50 (Paracentrotus lividus): 35 µg/mL (≈ 129 µM)
SMILES: COC1(CO)Nc2cc(Br)ccc2C1=O (centres undefined) [MATEMONE]
zone of inhibition at 50 µg/disc (Staphylococcus aureus [1]): 7 mm
zone of inhibition at 100 µg/disc (Staphylococcus aureus [2]): 9 mm
zone of inhibition at 200 µg/disc (Staphylococcus aureus [3]): 11 mm
IC50 (MIA PaCa-2): 24 µg/mL (≈ 88.2 µM)
IC50 [4]: 30 µg/mL (≈ 110 µM)
Activity (Candida albicans): inactive
IC50 (DU-145): 27 µg/mL (≈ 99.2 µM)

— ChEMBL document CHEMBL1155555, “Matemone, a new bioactive bromine-containing oxindole alkaloid from the indian ocean sponge Iotrochota purpurea” (J Nat Prod, 2000)
